Laboratory results reported in PubChem BioAssay (NCI).
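Cells were grown in 96-well plates and exposed to each compound for 48 hours at five concentrations; endpoints were interpolated linearly between bracketing concentrations, or set to the highest concentration if not reached. Definition used: TGI = concentration required for complete inhibition of growth.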

Experiments:
Assay in all cases: growth of human tumour cells (NCI), 48 h
MALME-3M melanoma = system: MALME-3M melanoma
LOX IMVI melanoma = system: LOX IMVI melanoma
ACHN renal = system: ACHN renal
SK-OV-3 ovarian = system: SK-OV-3 ovarian
HCT-15 colon = system: HCT-15 colon
PC-3 prostate = system: PC-3 prostate
T-47D breast = system: T-47D breast
TK-10 renal = system: TK-10 renal
UACC-257 melanoma = system: UACC-257 melanoma
SNB-75 CNS = system: SNB-75 CNS
RXF 393 renal = system: RXF 393 renal
NCI/ADR-RES ovarian = system: NCI/ADR-RES ovarian
NCI-H460 lung = system: NCI-H460 lung
OVCAR-8 ovarian = system: OVCAR-8 ovarian
CAKI-1 renal = system: CAKI-1 renal
SK-MEL-5 melanoma = system: SK-MEL-5 melanoma
COLO 205 colon = system: COLO 205 colon
HT29 colon = system: HT29 colon
OVCAR-4 ovarian = system: OVCAR-4 ovarian
DU-145 prostate = system: DU-145 prostate
K-562 leukemia = system: K-562 leukemia
RPMI-8226 leukemia = system: RPMI-8226 leukemia
UO-31 renal = system: UO-31 renal
A549 NSCLC = system: A549 NSCLC
NCI-H226 lung = system: NCI-H226 lung
MOLT-4 leukemia = system: MOLT-4 leukemia
HOP-92 NSCLC = system: HOP-92 NSCLC
M14 melanoma = system: M14 melanoma
SW-620 colon = system: SW-620 colon
HCT-116 colon = system: HCT-116 colon
SR leukemia = system: SR leukemia
SK-MEL-28 melanoma = system: SK-MEL-28 melanoma
MDA-MB-435 = system: MDA-MB-435
HOP-62 NSCLC = system: HOP-62 NSCLC
SF-539 CNS = system: SF-539 CNS
MDA-N = system: MDA-N
U251 CNS = system: U251 CNS
EKVX NSCLC = system: EKVX NSCLC
SNB-19 CNS = system: SNB-19 CNS
OVCAR-5 ovarian = system: OVCAR-5 ovarian
SF-268 CNS = system: SF-268 CNS
SF-295 CNS = system: SF-295 CNS
HS 578T breast = system: HS 578T breast
BT-549 breast = system: BT-549 breast
786-0 renal = system: 786-0 renal
MDA-MB-231 breast = system: MDA-MB-231 breast
NCI-H522 lung = system: NCI-H522 lung
OVCAR-3 ovarian = system: OVCAR-3 ovarian
NCI-H23 lung = system: NCI-H23 lung
SN12C renal = system: SN12C renal
HL-60(TB) leukemia = system: HL-60(TB) leukemia
SK-MEL-2 melanoma = system: SK-MEL-2 melanoma
IGROV1 ovarian = system: IGROV1 ovarian
KM12 colon = system: KM12 colon
CCRF-CEM leukemia = system: CCRF-CEM leukemia
HCC-2998 colon = system: HCC-2998 colon
UACC-62 melanoma = system: UACC-62 melanoma
A498 renal = system: A498 renal
MCF7 breast = system: MCF7 breast

**Q.** Which results are given for `COc1ccc(-c2cc(-c3cc(F)c(Cl)cc3Cl)[nH]n2)cc1OC`?
**A.** TGI (MALME-3M melanoma): > 100 µM; TGI (LOX IMVI melanoma): 42.1 µM; TGI (ACHN renal): 30.4 µM; TGI (SK-OV-3 ovarian): > 100 µM; TGI (HCT-15 colon): > 100 µM; TGI (PC-3 prostate): 79.1 µM; TGI (T-47D breast): > 100 µM; TGI (TK-10 renal): > 100 µM; TGI (UACC-257 melanoma): > 100 µM; TGI (SNB-75 CNS): 61.5 µM; TGI (RXF 393 renal): 43.8 µM; TGI (NCI/ADR-RES ovarian): > 100 µM; TGI (NCI-H460 lung): > 100 µM; TGI (OVCAR-8 ovarian): > 100 µM; TGI (CAKI-1 renal): > 100 µM; TGI (SK-MEL-5 melanoma): 47.3 µM; TGI (COLO 205 colon): 47 µM; TGI (HT29 colon): 76.6 µM; TGI (OVCAR-4 ovarian): > 100 µM; TGI (DU-145 prostate): > 100 µM; TGI (K-562 leukemia): > 100 µM; TGI (RPMI-8226 leukemia): 41 µM; TGI (UO-31 renal): > 100 µM; TGI (A549 NSCLC): > 100 µM; TGI (NCI-H226 lung): 52.5 µM; TGI (MOLT-4 leukemia): > 100 µM; TGI (HOP-92 NSCLC): 67.8 µM; TGI (M14 melanoma): > 100 µM; TGI (SW-620 colon): 74.2 µM; TGI (HCT-116 colon): 83.6 µM; TGI (SR leukemia): 43.8 µM; TGI (SK-MEL-28 melanoma): > 100 µM; TGI (MDA-MB-435): > 100 µM; TGI (HOP-62 NSCLC): > 100 µM; TGI (SF-539 CNS): 37.3 µM; TGI (MDA-N): > 100 µM; TGI (U251 CNS): > 100 µM; TGI (EKVX NSCLC): > 100 µM; TGI (SNB-19 CNS): > 100 µM; TGI (OVCAR-5 ovarian): > 100 µM; TGI (SF-268 CNS): > 100 µM; TGI (SF-295 CNS): 73.7 µM; TGI (HS 578T breast): > 100 µM; TGI (BT-549 breast): > 100 µM; TGI (786-0 renal): 42.4 µM; TGI (MDA-MB-231 breast): > 100 µM; TGI (NCI-H522 lung): 81.8 µM; TGI (OVCAR-3 ovarian): 41.3 µM; TGI (NCI-H23 lung): > 100 µM; TGI (SN12C renal): 62.9 µM; TGI (HL-60(TB) leukemia): 55 µM; TGI (SK-MEL-2 melanoma): > 100 µM; TGI (IGROV1 ovarian): > 100 µM; TGI (KM12 colon): > 100 µM; TGI (CCRF-CEM leukemia): 75.9 µM

**Q.** What does the source list for `C/C=N\n1c(C)n[nH]c1=O`?
**A.** TGI (MALME-3M melanoma): > 100 µM; TGI (LOX IMVI melanoma): > 100 µM; TGI (ACHN renal): > 100 µM; TGI (HCT-15 colon): > 100 µM; TGI (PC-3 prostate): > 100 µM; TGI (T-47D breast): > 100 µM; TGI (TK-10 renal): > 100 µM; TGI (UACC-257 melanoma): > 100 µM; TGI (SNB-75 CNS): > 100 µM; TGI (RXF 393 renal): > 100 µM; TGI (NCI/ADR-RES ovarian): > 100 µM; TGI (NCI-H460 lung): > 100 µM; TGI (OVCAR-8 ovarian): > 100 µM; TGI (HCC-2998 colon): > 100 µM; TGI (CAKI-1 renal): > 100 µM; TGI (SK-MEL-5 melanoma): > 100 µM; TGI (COLO 205 colon): > 100 µM; TGI (UACC-62 melanoma): > 100 µM; TGI (HT29 colon): > 100 µM; TGI (OVCAR-4 ovarian): > 100 µM; TGI (DU-145 prostate): > 100 µM; TGI (K-562 leukemia): > 100 µM; TGI (RPMI-8226 leukemia): > 100 µM; TGI (UO-31 renal): > 100 µM; TGI (A549 NSCLC): > 100 µM; TGI (NCI-H226 lung): > 100 µM; TGI (MOLT-4 leukemia): > 100 µM; TGI (HOP-92 NSCLC): > 100 µM; TGI (M14 melanoma): > 100 µM; TGI (SW-620 colon): > 100 µM; TGI (HCT-116 colon): > 100 µM; TGI (SR leukemia): > 100 µM; TGI (SK-MEL-28 melanoma): > 100 µM; TGI (MDA-MB-435): > 100 µM; TGI (HOP-62 NSCLC): > 100 µM; TGI (SF-539 CNS): > 100 µM; TGI (MDA-N): > 100 µM; TGI (U251 CNS): > 100 µM; TGI (EKVX NSCLC): > 100 µM; TGI (SNB-19 CNS): > 100 µM; TGI (OVCAR-5 ovarian): > 100 µM; TGI (SF-268 CNS): > 100 µM; TGI (SF-295 CNS): > 100 µM; TGI (HS 578T breast): > 100 µM; TGI (BT-549 breast): > 100 µM; TGI (786-0 renal): > 100 µM; TGI (NCI-H522 lung): > 100 µM; TGI (OVCAR-3 ovarian): > 100 µM; TGI (NCI-H23 lung): > 100 µM; TGI (A498 renal): > 100 µM; TGI (SN12C renal): > 100 µM; TGI (HL-60(TB) leukemia): > 100 µM; TGI (SK-MEL-2 melanoma): > 100 µM; TGI (IGROV1 ovarian): > 100 µM; TGI (MCF7 breast): > 100 µM; TGI (KM12 colon): > 100 µM; TGI (CCRF-CEM leukemia): > 100 µM
